For seven compounds, GI50 and TGI results are on record in PubChem BioAssay (NCI).

Among the test systems are BT-549 breast; DU-145 prostate; HOP-62 NSCLC; KM12 colon; MCF7 breast; OVCAR-3 ovarian; PC-3 prostate; SF-268 CNS; SF-539 CNS; SN12C renal.
Common to all, as to assay: NCI tumour cell line growth inhibition, 48 h

Each structure is given as a SMILES string.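 Results reflect a 48-hour exposure of cells in 96-well plates to compound at five concentrations. At the GI50, growth is halved. Definition used: TGI = concentration required for complete inhibition of growth.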 A value given as a limit tells only on which side of the number the result lay.

For `CCS(=O)(=O)N1CCN(c2ccc(Nc3ncc(C(N)=O)c(NC4CC4)n3)cc2)CC1`, the GI50 in the assay on BT-549 breast is 3.19 µM; with DU-145 prostate, 8.63 µM; in the assay on HOP-62 NSCLC, 3.51 µM; in the assay with KM12 colon, 0.812 µM; in the assay with MCF7 breast it was 4.77 µM; in the assay on OVCAR-3 ovarian it was 5.73 µM. Further, the GI50 with PC-3 prostate was 16.1 µM; in the assay with SF-268 CNS, 13.9 µM; in the assay on SF-539 CNS it was 2.09 µM; in the assay with SN12C renal, 2.6 µM. The TGI with BT-549 breast is 11.3 µM; with DU-145 prostate, greater than 100 µM; in the assay with HOP-62 NSCLC it was 29.7 µM; with KM12 colon it was 18.5 µM; in the assay on MCF7 breast, greater than 100 µM; in the assay with OVCAR-3 ovarian, 31.4 µM. In addition, the TGI with PC-3 prostate was greater than 100 µM; in the assay on SF-268 CNS, 52.9 µM; in the assay with SF-539 CNS it was 10.7 µM; in the assay with SN12C renal it was 49.6 µM.

Turning to `O=C(CCl)Nc1ccc(Cc2ccc(NC(=O)CCl)cc2)cc1`, the GI50 with BT-549 breast was 1.4 µM; in the assay with DU-145 prostate it was 2.85 µM; in the assay with HOP-62 NSCLC, 2.38 µM; in the assay on KM12 colon, 1.57 µM; with MCF7 breast it was 1.54 µM; with OVCAR-3 ovarian, 1.17 µM. The GI50 is 2.13 µM with PC-3 prostate, 1.83 µM with SF-268 CNS, 1.66 µM with SF-539 CNS and 2.38 µM in the assay on SN12C renal. For the same compound, the TGI in the assay with BT-549 breast is 4.69 µM; in the assay on DU-145 prostate, 11 µM; with HOP-62 NSCLC, 6.1 µM; in the assay with KM12 colon, 3.17 µM; in the assay with MCF7 breast, greater than 100 µM; with OVCAR-3 ovarian it was 2.48 µM. Besides, the TGI in the assay on PC-3 prostate is 6.42 µM; in the assay on SF-268 CNS it was 9.56 µM; in the assay on SF-539 CNS, 3.28 µM; in the assay on SN12C renal, greater than 100 µM.

With `CCOP(=O)(OCC)C(NC(c1ccccc1)c1ccccc1)c1ccc(C(C)C)cc1` (stereo not given), the GI50 in the assay with BT-549 breast was 6.8 µM; with DU-145 prostate, 8.41 µM; in the assay with HOP-62 NSCLC it was 6.08 µM; in the assay on KM12 colon it was 4.8 µM; in the assay with MCF7 breast, 3.06 µM; in the assay with OVCAR-3 ovarian, 1.87 µM. For the same compound, the GI50 with PC-3 prostate was 2.9 µM; in the assay with SF-268 CNS, 7.93 µM; in the assay with SF-539 CNS, 13.1 µM; in the assay on SN12C renal, 4.65 µM. Also, the TGI in the assay on BT-549 breast was determined as 28.9 µM; in the assay with DU-145 prostate, 25.5 µM; in the assay with HOP-62 NSCLC, 18.8 µM; in the assay with KM12 colon, 17.2 µM; in the assay on MCF7 breast it was 11.4 µM; with OVCAR-3 ovarian it was 6.15 µM. For the same compound, the TGI is 13.3 µM in the assay with PC-3 prostate, 69.5 µM in the assay on SF-268 CNS, 30 µM with SF-539 CNS and 16.8 µM with SN12C renal.

Regarding `CCN(CC)CCCC(C)Nc1ccnc(/C=C/c2ccc(Cl)cc2)c1` (stereo not given), the TGI in the assay with BT-549 breast is 8.39 µM; in the assay with DU-145 prostate it was 17.6 µM; in the assay on HOP-62 NSCLC it was 4.11 µM; with KM12 colon, 7.39 µM; in the assay on MCF7 breast, 4.84 µM; with OVCAR-3 ovarian, 4.98 µM. Moreover, the TGI amounted to 10.7 µM with PC-3 prostate, 8.6 µM with SF-268 CNS, 3.8 µM in the assay on SF-539 CNS and 10.9 µM with SN12C renal.

Consider `C=C1C(=O)O[C@H]2[C@H]1CC/C(COC(=O)/C=C\C(=O)NCc1ccc(Cn3c(=O)sn(-c4ccc(Cl)cc4)c3=O)cc1)=C\CC[C@@]1(C)O[C@@H]21`, for which the GI50 was 0.591 µM in the assay with BT-549 breast; 0.638 µM with DU-145 prostate; 2.12 µM in the assay on HOP-62 NSCLC; 0.891 µM in the assay on KM12 colon; 0.36 µM in the assay with MCF7 breast; 0.223 µM in the assay on OVCAR-3 ovarian. Besides, the GI50 in the assay with PC-3 prostate was 0.599 µM; in the assay on SF-268 CNS, 0.71 µM; in the assay with SF-539 CNS, 0.748 µM; in the assay on SN12C renal, 0.666 µM. Further, the TGI in the assay with BT-549 breast was found to be 1.51 µM; in the assay on DU-145 prostate, 1.3 µM; in the assay with HOP-62 NSCLC it was 7.63 µM; in the assay on KM12 colon, 1.82 µM; in the assay on MCF7 breast it was 1.41 µM; with OVCAR-3 ovarian, 0.821 µM. The TGI in the assay with PC-3 prostate is 1.39 µM; with SF-268 CNS, 1.43 µM; in the assay with SF-539 CNS, 1.43 µM; in the assay on SN12C renal, 1.63 µM.

Take `CC1(C)CN(CCNc2nccc(-c3c(-c4cccc(O)c4)nc4sccn34)n2)S(=O)(=O)N1`: the GI50 with BT-549 breast is greater than 22.5 µM; with DU-145 prostate, 7.48 µM; with HOP-62 NSCLC, 32.7 µM; in the assay on KM12 colon it was 11.9 µM; with MCF7 breast, 9.66 µM; with OVCAR-3 ovarian it was 12.2 µM. Also, the GI50 in the assay with PC-3 prostate is 17.1 µM; with SF-268 CNS it was 21.8 µM; in the assay with SF-539 CNS, 30 µM; with SN12C renal it was 9.86 µM. In addition, the TGI with BT-549 breast, in the assay on DU-145 prostate, in the assay on HOP-62 NSCLC, in the assay with KM12 colon, with MCF7 breast and with OVCAR-3 ovarian was greater than 33.2 µM in each case. Moreover, the TGI in the assay with PC-3 prostate, in the assay on SF-268 CNS, in the assay on SF-539 CNS and in the assay on SN12C renal was greater than 33.2 µM throughout.

`O=C(CC1Sc2ccccc2NC1=O)NNc1ccc(F)cc1` (stereo not given): the GI50 with BT-549 breast is greater than 100 µM; with DU-145 prostate it was 57 µM; in the assay on HOP-62 NSCLC, 66.3 µM; in the assay on KM12 colon, 25.2 µM; in the assay with MCF7 breast it was 52 µM; in the assay on OVCAR-3 ovarian, greater than 100 µM. The GI50 with PC-3 prostate is 64.1 µM; in the assay on SF-268 CNS it was 81 µM; in the assay on SF-539 CNS, 16.3 µM; with SN12C renal it was 22.1 µM. Further, the TGI in the assay with BT-549 breast, with DU-145 prostate, in the assay with HOP-62 NSCLC, in the assay on KM12 colon, in the assay with MCF7 breast and with OVCAR-3 ovarian was greater than 100 µM in each case. The TGI is greater than 100 µM with PC-3 prostate, greater than 100 µM in the assay on SF-268 CNS, 61.8 µM in the assay on SF-539 CNS and greater than 100 µM in the assay on SN12C renal.
